Experimental findings from article PMC12040169 (PLOS Biology, 2025) are described below.

A short description of one data set: in vitro. The settings on record: human, hela cells.
Regarding `COCCn1cc(C(=O)N2CCCC(CN(C)C)C2)c2ccccc21` (stereo not shown) [CBK281431], the viability at 28.5 h, 10 µM turned out to be 91.5%.

The same data set, now with this note: human, hela cells, % viability.
With `CCc1nc(CNC(=O)c2cc3cc(F)ccc3n2C)no1` [CBK281414], the viability at 28.5 h, 10 µM was found to be 93.6%.

With `CC(C)Oc1cccc(CNC(=O)c2ccc(C(C)(C)C)[nH]c2=O)c1` [CBK281415], the viability at 28.5 h, 10 µM was 92.2%.

Take `Cc1ccn2cc(C(=O)NCCSc3nccn3C)nc2c1` [CBK281417]: the viability at 28.5 h, 10 µM was 104%.

As for `Cc1c(S(=O)(=O)Nc2ccc(-c3ccc(F)cc3)cc2)cnn1C` [CBK281418], the viability at 28.5 h, 10 µM worked out at 114%.

`Cc1cc(=O)n(CC(=O)NC(C)Cc2ccccn2)c2ccccc12` (stereo not shown) [CBK281420]: the viability at 28.5 h, 10 µM is 90.3%.

`CC(Cc1ccccn1)NC(=O)c1cc(-c2ccccc2F)no1` (stereo not shown) [CBK281421]: the viability at 28.5 h, 10 µM is 91.1%.

With `COc1ccc2c(C)c(C(=O)NC(C)Cc3ccccn3)oc2c1` (stereo not shown) [CBK281424], the viability at 28.5 h, 10 µM came to 89.1%.

`Cc1nc(C)c(CC(=O)Nc2cccc(CN3CCCC3)c2)s1` [CBK281426]: the viability at 28.5 h, 10 µM came out at 105%.

As to `Cc1ccc(F)c(S(=O)(=O)NC(C)Cc2ccccn2)c1` (stereo not shown) [CBK281427], the viability at 28.5 h, 10 µM is 90.5%.

As to `Cc1nn(CCNC(=O)C2CC3C=CC2C32CC2)c(C)c1Cl` (stereo not shown) [CBK281429], the viability at 28.5 h, 10 µM turned out to be 90.8%.

Turning to `Cn1nc(C(=O)Nc2ccccc2Oc2ccc(F)cc2)ccc1=O` [CBK281430], the viability at 28.5 h, 10 µM came out at 91%.

For `CC(NC(=O)CC(C)n1cccn1)c1cc2cc(Cl)ccc2o1` (stereo not shown) [CBK281432], the viability at 28.5 h, 10 µM was 92.6%.

For the compound `CCc1cc(C(=O)NC(c2ccc(F)cc2)c2nccn2C)n(C)n1` (stereo not shown) [CBK281434], the viability at 28.5 h, 10 µM stood at 108%.

For `COC(=O)C1(Cc2ccccc2-c2ccncc2)CCNC1` (stereo not shown) [CBK281435], the viability at 28.5 h, 10 µM came to 85.2%.

Turning to `Cc1cn(CC(=O)NCC2(c3cccc(F)c3)CCCC2)nn1` [CBK281436], the viability at 28.5 h, 10 µM turned out to be 89.7%.

On to `CC(C(=O)NC(c1ccncc1)c1cccs1)n1ccnc1` (stereo not shown) [CBK281438], for which the viability at 28.5 h, 10 µM turned out to be 90.9%.

`Cc1nccn1CCC(=O)NC(c1ccncc1)c1cccs1` (stereo not shown) [CBK281440]: the viability at 28.5 h, 10 µM was determined as 90.6%.

As to `Cn1ccnc1C(NC(=O)C1C2CCCCC21)c1ccc(F)cc1` (stereo not shown) [CBK281441], the viability at 28.5 h, 10 µM was determined as 98.7%.

On to `Cc1nonc1CN(C)C(=O)c1ccc2c(c1)c(C)c(C)n2C` [CBK281442], for which the viability at 28.5 h, 10 µM is 56.1%.

On to `CCCn1nc(C)c(-c2cncn2CCn2nc(C)c(C)c2C)c1C` [CBK281444], for which the viability at 28.5 h, 10 µM turned out to be 83.5%.

Turning to `Cc1noc(C)c1CC(=O)NC(C)c1cc2cc(Cl)ccc2o1` (stereo not shown) [CBK281445], the viability at 28.5 h, 10 µM turned out to be 90.1%.

For `Cc1cnn(CC(=O)NC(C)c2cc3cc(Cl)ccc3o2)c1` (stereo not shown) [CBK281447], the viability at 28.5 h, 10 µM is 90.2%.

For `Cc1nn(C)c(C)c1CN(C(=O)c1ccc(C)n(C)c1=O)C1CC1` [CBK281450], the viability at 28.5 h, 10 µM worked out at 105%.

As for `Cn1c(=O)cc(Oc2ccc(F)cc2)c2ccccc21` [CBK281451], the viability at 28.5 h, 10 µM is 88.1%.

As for `OC(CN1CCC(Oc2cccc(F)c2)CC1)c1cccs1` (stereo not shown) [CBK281453], the viability at 28.5 h, 10 µM was determined as 88.8%.

Take `CC(CC(=O)NC(c1ccc(F)cc1)c1nccn1C)n1cccn1` (stereo not shown) [CBK281454]: the viability at 28.5 h, 10 µM stood at 93.7%.

As for `O=C(Cn1ccnc1)Nc1ccccc1Oc1ccc(F)cc1` [CBK281455], the viability at 28.5 h, 10 µM amounted to 90.1%.

As to `Cc1cccc(OCCn2cncc2-c2cn(C)nc2C)c1C` [CBK281458], the viability at 28.5 h, 10 µM turned out to be 112%.

Regarding `CCC(CN1CCCC1)n1cncc1-c1cn(C)nc1C` (stereo not shown) [CBK281459], the viability at 28.5 h, 10 µM was 102%.

As to `CCC(CN1CCCCC1)n1cncc1-c1cn(C)nc1C` (stereo not shown) [CBK281460], the viability at 28.5 h, 10 µM is 96.9%.

As to `O=C(Nc1ccc(N2CCCC2)c(F)c1)C1CC(=O)N(C2CC2)C1` (stereo not shown) [CBK281461], the viability at 28.5 h, 10 µM was found to be 100%.

For the compound `O=C(Cc1ccc2c(c1)CCCO2)NCc1ccccc1-n1ccnc1` [CBK281463], the viability at 28.5 h, 10 µM stood at 86.6%.

`c1ccc(-c2n[nH]cc2-c2cncn2CCCN2CCCCC2)cc1` [CBK281464]: the viability at 28.5 h, 10 µM was determined as 90.4%.

As for `CC(C)(CO)CCCn1cncc1-c1cnn(-c2ccc(F)cc2)c1` [CBK281466], the viability at 28.5 h, 10 µM is 117%.

In the case of `Cc1cc(C)n(C(C)CC(=O)NC(C)c2nc3ccccc3s2)n1` (stereo not shown) [CBK281469], the viability at 28.5 h, 10 µM turned out to be 93.2%.

For the compound `CC(=O)N1CCc2cc(NC(=O)c3cc4cc(C)ccc4o3)ccc21` [CBK281470], the viability at 28.5 h, 10 µM amounted to 86.2%.

Regarding `CC(=O)N1CCc2cc(NC(=O)Cn3ccnc3C(C)C)ccc21` [CBK281471], the viability at 28.5 h, 10 µM was 90.1%.

With `Cc1nccn1CCC(=O)Nc1ccccc1Oc1ccc(F)cc1` [CBK281473], the viability at 28.5 h, 10 µM turned out to be 91.9%.

With `O=C(CCn1cccn1)NCC1CCCOC1` (stereo not shown) [CBK281474], the viability at 28.5 h, 10 µM was 110%.

As to `CCCn1nc(C)c(-c2cncn2CCc2c(C)nn(C)c2C)c1C` [CBK281475], the viability at 28.5 h, 10 µM was 91.5%.

Turning to `Cc1nc(C)c(CC(=O)N(C)CC2OCCc3ccccc32)s1` (stereo not shown) [CBK281478], the viability at 28.5 h, 10 µM came out at 90.9%.

Consider `O=C(Cn1ccnc1)NC(c1ccc(Cl)cc1)c1cccnc1` (stereo not shown) [CBK281481], for which the viability at 28.5 h, 10 µM came to 99.2%.

For `CCc1cc(C(=O)NC(c2ccncc2)c2cccs2)n(C)n1` (stereo not shown) [CBK281482], the viability at 28.5 h, 10 µM stood at 109%.

Regarding `Cn1ccnc1C(NC(=O)[C@@H]1C[C@@H]2C=C[C@H]1C2)c1ccc(F)cc1` (stereo partly shown) [CBK281483], the viability at 28.5 h, 10 µM stood at 95.5%.

With `Cc1nn(C)cc1-c1cncn1Cc1cccc(OC(C)C)c1` [CBK281484], the viability at 28.5 h, 10 µM is 95.3%.

For the compound `Cc1cc(CNC(=O)CCn2ccc(C)n2)on1` [CBK281485], the viability at 28.5 h, 10 µM worked out at 97.3%.

Regarding `Cc1cc(CNC(=O)C(C)Cn2cccn2)on1` (stereo not shown) [CBK281486], the viability at 28.5 h, 10 µM amounted to 90.9%.

In the case of `Cc1cc(CNC(=O)Cn2nc(C)c(C)c2C)on1` [CBK281487], the viability at 28.5 h, 10 µM was found to be 95.1%.

Turning to `CC(NC(=O)c1n[nH]c2c1CCC2)c1cccnc1` (stereo not shown) [CBK281488], the viability at 28.5 h, 10 µM was found to be 93.7%.

As for `c1ccc(Cn2cc(-c3cncn3CCCN3CCCCC3)cn2)cc1` [CBK281491], the viability at 28.5 h, 10 µM came to 91.4%.

In the case of `Cc1nn(C)cc1-c1cncn1CCCN1CCCCC1` [CBK281493], the viability at 28.5 h, 10 µM came out at 96%.

On to `O=C(CCCn1ccnc1)NCC1(c2cccc(F)c2)CCCC1` [CBK281500], for which the viability at 28.5 h, 10 µM was found to be 88.5%.

For `O=C(C1CC2C=CC1C21CC1)N1CCC(Oc2cccnc2)CC1` (stereo not shown) [CBK281501], the viability at 28.5 h, 10 µM was determined as 101%.

As for `Cc1ccc(S(=O)(=O)NCCn2nc(C)c(C)c2C)s1` [CBK281502], the viability at 28.5 h, 10 µM was 86.7%.

Consider `O=C(NCc1ccc2c(c1)CCCO2)C1CC2C=CC1C21CC1` (stereo not shown) [CBK281503], for which the viability at 28.5 h, 10 µM is 89.1%.

With `CC(O)(c1ccncc1)c1nccs1` (stereo not shown) [CBK281504], the viability at 28.5 h, 10 µM worked out at 90.1%.

On to `CC(C)Cc1cc(CNS(=O)(=O)Cc2ccccc2F)on1` [CBK281505], for which the viability at 28.5 h, 10 µM is 96.6%.

For `Cc1cc(C)c(C)c(OCCCNC(=O)Cc2c(C)noc2C)c1` [CBK281506], the viability at 28.5 h, 10 µM worked out at 100%.

Regarding `Cc1noc(C)c1CC(=O)NC(CN1CCCCC1)c1ccccc1` (stereo not shown) [CBK281507], the viability at 28.5 h, 10 µM turned out to be 89.1%.

In the case of `COc1ccc(N2CC(C(=O)N(C)CC(F)(F)F)CC2=O)cc1` (stereo not shown) [CBK281510], the viability at 28.5 h, 10 µM came out at 98.2%.
